For 27 compounds, EC50 results are on record in US12006321B2, “Substituted pyrazolo[1,5-a]pyrimidines as apelin receptor agonists” (Sanford Burnham Prebys Medical Discovery Institute, priority 2017, dated 2024).

SMILES strings stand for the structures.

This experiment deals with T1, human apelin receptor (APJ, APLNR) (Homo sapiens, UniProt P35414).
T1 construct: host or cells: Chinese hamster ovary (CHO) cells, stably integrated receptor
T1 sequence (P35414 1-380): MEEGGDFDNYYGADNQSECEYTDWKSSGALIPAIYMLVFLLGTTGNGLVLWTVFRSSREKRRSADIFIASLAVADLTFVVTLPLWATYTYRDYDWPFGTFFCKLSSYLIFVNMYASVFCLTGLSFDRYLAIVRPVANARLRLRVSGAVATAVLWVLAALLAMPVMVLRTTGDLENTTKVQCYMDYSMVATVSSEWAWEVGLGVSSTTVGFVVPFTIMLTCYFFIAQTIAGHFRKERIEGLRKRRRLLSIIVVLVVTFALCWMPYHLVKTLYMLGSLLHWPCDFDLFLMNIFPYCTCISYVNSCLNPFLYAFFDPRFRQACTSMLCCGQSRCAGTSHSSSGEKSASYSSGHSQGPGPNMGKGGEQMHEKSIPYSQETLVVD
Briefly: cell-based cAMP assay (TR-FRET) in Chinese hamster ovary cells expressing the apelin receptor. The following applies: EC50 = 50% of control (apelin-13, 1 nM) response; cAMP in CHO cells, 0.5 h incubation; read-out: Potency Category. The gist of the method: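 CHO cells stably expressing human APJ were forskolin-stimulated, then exposed to compound (0.0-100 μM, ≤1% DMSO) for 0.5 h. Lysate cAMP read by competitive TR-FRET immunoassay; EC50 and efficacy expressed relative to 1 nM apelin-13, four-parameter fit over ≥10 concentrations.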
Turning to `CCOC(=O)c1cc(C(C)C)n2nc(C(C)C)c(-c3c(C)cccc3C)c2n1` [Compound 73, ethyl 2,7-bis(methylethyl)-3-(2,6-dimethylphenyl)-8-hydropyrazolo[1,5-a]pyrimidine-5-carboxylate], the EC50 was greater than 500 nM. Regarding `CCOC(=O)c1cc(Nc2ccccc2)n2nc(C)c(-c3c(C)cccc3C)c2n1` [Compound 117, ethyl 3-(2,6-dimethylphenyl)-2-methyl-7-(phenylamino)-8-hydropyrazolo[1,5-a]pyrimidine-5-carboxylate], the EC50 was greater than 500 nM. The figure for `Cc1cccc(C)c1-c1c(C)nn2c(Nc3ccccc3)cc(C(=O)O)nc12` [Compound 118, 3-(2,6-dimethylphenyl)-2-methyl-7-(phenylamino)-8-hydropyrazolo[1,5-a]pyrimidine-5-carboxylic acid] is greater than 500 nM; for `Cc1cccc(C)c1-c1c(C)nn2c(Nc3ccc(Cl)cc3)cc(C(=O)O)nc12` [Compound 140, 3-(2,6-dimethylphenyl)-7-[(4-chlorophenyl)amino]-2-methyl-8-hydropyrazolo[1,5-a]pyrimidine-5-carboxylic acid] it is greater than 500 nM.

On to `Cc1nn2c(C(C)C)cc(C(=O)O)nc2c1-c1c(F)cccc1C#N` [Compound 120, 3-(2-cyano-6-fluorophenyl)-2-methyl-7-(methylethyl)-8-hydropyrazolo[1,5-a]pyrimidine-5-carboxylic acid], for which the EC50 was greater than 500 nM.

Take `COC(=O)c1cc(Nc2ccc(OC)cc2)n2nc(C)c(-c3c(C)cccc3C)c2n1` [Compound 135, methyl 3-(2,6-dimethylphenyl)-7-[(4-methoxyphenyl)amino]-2-methyl-8-hydropyrazolo[1,5-a]pyrimidine-5-carboxylate]: the EC50 was greater than 500 nM.

`CCCc1cc(C(=O)OCC)nc2c(-c3ccccc3)c(C)nn12` [Compound 35, ethyl 2-methyl-3-phenyl-7-propyl-8-hydropyrazolo[1,5-a]pyrimidine-5-carboxylate]: the EC50 is greater than 500 nM. `Cc1cccc(C)c1-c1c(C)nn2c(N(C)c3ccccc3)cc(C(=O)O)nc12` [Compound 149]: the EC50 was greater than 500 nM.

In the case of `Cc1cccc(C)c1-c1c(C2CC2)nn2c(C(C)C)cc(C(=O)O)nc12` [Compound 84, 3-(2,6-dimethylphenyl)-2-cyclopropyl-7-(methylethyl)-8-hydropyrazolo[1,5-a]pyrimidine-5-carboxylic acid], the EC50 is greater than 500 nM. The figure for `Cc1cccc(C)c1-c1c(C)nn2c(N(C)C)cc(C(=O)O)nc12` [Compound 103, 7-(dimethylamino)-3-(2,6-dimethylphenyl)-2-methyl-8-hydropyrazolo[1,5-a]pyrimidine-5-carboxylic acid] is greater than 500 nM; for `CCOC(=O)c1cc(C(C)C)n2nc(C)c(-c3ccccc3F)c2n1` [Compound 23, ethyl 3-(2-fluorophenyl)-2-methyl-7-(methylethyl)-8-hydropyrazolo[1,5-a]pyrimidine-5-carboxylate] it is greater than 500 nM; for `Cc1cccc(C)c1-c1c(C)nn2c(Nc3ccc(OC(F)(F)F)cc3)cc(C(=O)O)nc12` [Compound 144, 3-(2,6-dimethylphenyl)-2-methyl-7-{[4-(trifluoromethoxy)phenyl]amino}-8-hydropyrazolo[1,5-a]pyrimidine-5-carboxylic acid] it is greater than 500 nM. Next, `Cc1cccc(C)c1-c1c(C)nn2c(C3=CCCC3)cc(C(=O)O)nc12` [Compound 127, 3-(2,6-dimethylphenyl)-7-cyclopent-1-enyl-2-methyl-8-hydropyrazolo[1,5-a]pyrimidine-5-carboxylic acid]: greater than 500 nM. Next, `CCOC(=O)c1cc(C(C)C)n2nc(C)c(-c3c(F)cccc3Cl)c2n1` [Compound 112, ethyl 3-(2-chloro-6-fluorophenyl)-2-methyl-7-(methylethyl)-8-hydropyrazolo[1,5-a]pyrimidine-5-carboxylate]: greater than 500 nM; `Cc1cccc(C)c1-c1c(C)nn2c(N3CCN(C)CC3)cc(C(=O)O)nc12` [Compound 106, 3-(2,6-dimethylphenyl)-2-methyl-7-(4-methylpiperazinyl)-8-hydropyrazolo[1,5-a]pyrimidine-5-carboxylic acid]: greater than 500 nM; `CCOC(=O)c1cc(Oc2ccccc2)n2nc(C)c(-c3c(C)cccc3C)c2n1` [Compound 109, ethyl 3-(2,6-dimethylphenyl)-2-methyl-7-phenoxy-8-hydropyrazolo[1,5-a]pyrimidine-5-carboxylate]: greater than 500 nM. Regarding `CCCc1cc(C(=O)O)nc2c(-c3c(C)cccc3C)c(C)nn12` [Compound 55, 3-(2,6-dimethylphenyl)-2-methyl-7-propyl-8-hydropyrazolo[1,5-a]pyrimidine-5-carboxylic acid], the EC50 was greater than 500 nM. Next, `Cc1cccc(C)c1-c1c(C)nn2c(C)cc(C(=O)O)nc12` [Compound 57, 3-(2,6-dimethylphenyl)-2,7-dimethyl-8-hydropyrazolo[1,5-a]pyrimidine-5-carboxylic acid]: greater than 500 nM; `CC(C)c1cc(C(=O)O)nc2c3c(nn12)CCCC3` [Compound 43, 4-(methylethyl)-5,7,8,9,10-pentahydro-5H-pyrimidino[1,2-b]indazole-2-carboxylic acid]: greater than 500 nM. Next, `CCOC(=O)c1cc(C(C)C)n2nc(C)c(-c3c(C)cccc3Br)c2n1` [Compound 129, ethyl 3-(2-bromo-6-methylphenyl)-2-methyl-7-(methylethyl)-8-hydropyrazolo[1,5-a]pyrimidine-5-carboxylate]: greater than 500 nM; `Cc1nn2c(C3CC3)cc(C(=O)O)nc2c1-c1ccccc1` [Compound 6, 7-cyclopropyl-2-methyl-3-phenyl-8-hydropyrazolo[1,5-a]pyrimidine-5-carboxylic acid]: greater than 500 nM.

Consider `CCc1cccc(CC)c1-c1c(C)nn2c(C(C)C)cc(C(=O)O)nc12` [Compound 116], for which the EC50 fell in the range of 200 to 500 nM. The figure for `Cc1cccc(C)c1-c1c(C)nn2c(N3CCNCC3)cc(C(=O)O)nc12` [Compound 152, 3-(2,6-dimethylphenyl)-2-methyl-7-piperazinyl-8-hydropyrazolo[1,5-a]pyrimidine-5-carboxylic acid] is greater than 500 nM.

With `CCOC(=O)c1cc(C(C)C)n2nc(C)c(-c3cccc(F)c3)c2n1` [Compound 25, ethyl 3-(3-fluorophenyl)-2-methyl-7-(methylethyl)-8-hydropyrazolo[1,5-a]pyrimidine-5-carboxylate], the EC50 is greater than 500 nM. `CCOC(=O)c1cc(C(C)C)n2nc(C)c(-c3c(F)cccc3OC)c2n1` [Compound 91, ethyl 3-(6-fluoro-2-methoxyphenyl)-2-methyl-7-(methylethyl)-8-hydropyrazolo[1,5-a]pyrimidine-5-carboxylate]: the EC50 was greater than 500 nM. Next, `Cc1cc(Cl)cc(C)c1-c1c(C)nn2c(C(C)C)cc(C(=O)O)nc12` [Compound 70, 3-(4-chloro-2,6-dimethylphenyl)-2-methyl-7-(methylethyl)-8-hydropyrazolo[1,5-a]pyrimidine-5-carboxylic acid]: greater than 500 nM. Next, `COc1cccc(C)c1-c1c(C)nn2c(C(C)C)cc(C(=O)O)nc12` [Compound 76, 3-(2-methoxy-6-methylphenyl)-2-methyl-7-(methylethyl)-8-hydropyrazolo[1,5-a]pyrimidine-5-carboxylic acid]: greater than 500 nM.
